Literature values as cited in patent publication US20190320628A1, “A NON-HUMAN ANIMAL MODEL OF NEURODEGENERATIVE DISORDERS” (priority 2016, published 2019).

Columns and labels:
animals = details: KA used to model human epilepsy, SE/cSE-based models
rats = details: initial KA dose 5 mg/kg i.p., subsequent doses tailored
Wistar rats = details: KA alone

In the case of C=C(C)[C@H]1CN[C@H](C(=O)O)[C@H]1CC(=O)O [KA, kainic acid], the Mortality (animals) is listed as “up to 50%”, the “Non-responders (surviving animals that never exhibit spontaneous seizures)” value (animals) is listed as “up to 50%” and the Mortality rate (rats) is listed as “around 15%”. For the same compound, the “Non-responders among the surviving animals” value (Wistar rats) was 20-40% and the Mortality (Wistar rats; SE terminated by diazepam) was “up to 30%”.
